According to PubChem BioAssay AID2060611 (Molecular Pharmacology Branch, DTP, NCI, 2025):
Where “and” joins values, the source holds several entries; their conditions need not be identical. Equal values may be shown once.

System: 628569-122-R-J1-PDC complex spheroid viability
Assay: Anticancer human tumor 628569-122-R-J1-PDC patient-derived head and neck squamous carcinoma cell line growth inhibition [CLK]
Conditions: for viability, T/C: stronger effect = lower value
In short: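 Patient-derived tumor cells grown as complex spheroids with HUVEC endothelial cells and mesenchymal stem cells, treated with drug combinations. Concentrations descend in half-log steps from near clinical Cmax, or from 10 microM if Cmax unknown.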

[1] = curve of first compound, second compound 0.0316 µM
[2] = curve of first compound, second compound 0.1 µM
[3] = curve of first compound, second compound 0.316 µM
[4] = curve of first compound, second compound 1 µM
[5] = curve of first compound, second compound 3.16 µM
[6] = curve of first compound, second compound 10 µM
[7] = second compound 0.0316 µM, first compound 0.0316 µM
[8] = second compound 0.0316 µM, first compound 0.1 µM
[9] = second compound 0.0316 µM, first compound 0.316 µM
[10] = second compound 0.0316 µM, first compound 1 µM
[11] = second compound 0.1 µM, first compound 0.0316 µM
[12] = second compound 0.1 µM, first compound 0.1 µM
[13] = second compound 0.1 µM, first compound 0.316 µM
[14] = second compound 0.1 µM, first compound 1 µM
[15] = second compound 0.316 µM, first compound 0.0316 µM
[16] = second compound 0.316 µM, first compound 0.1 µM
[17] = second compound 0.316 µM, first compound 0.316 µM
[18] = second compound 0.316 µM, first compound 1 µM
[19] = second compound 1 µM, first compound 0.0316 µM
[20] = second compound 1 µM, first compound 0.1 µM
[21] = second compound 1 µM, first compound 0.316 µM
[22] = second compound 1 µM, first compound 1 µM
[23] = second compound 3.16 µM, first compound 0.0316 µM
[24] = second compound 3.16 µM, first compound 0.1 µM
[25] = second compound 3.16 µM, first compound 0.316 µM
[26] = second compound 3.16 µM, first compound 1 µM
[27] = second compound 10 µM, first compound 0.0316 µM
[28] = second compound 10 µM, first compound 0.1 µM
[29] = second compound 10 µM, first compound 0.316 µM
[30] = second compound 10 µM, first compound 1 µM
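Note: spheroids exposed to agents for seven days before readout.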
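Throughout, for viability, T/C: 100% = DMSO vehicle control viability.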

In the case of `C=CC(=O)N1CCN(c2nc(=O)n(-c3c(C)ccnc3C(C)C)c3nc(-c4c(O)cccc4F)c(F)cc23)C(C)C1` (stereo not drawn) + CNC(=O)c1ccc(Nc2nc(OC3CCCC3)c3c(-c4ccc5nc(C)oc5c4)c[nH]c3n2)c(OC)c1, the IC50 [1] is reported as greater than 10 µM, the IC50 [2] is reported as greater than 10 µM and the IC50 [3] is reported as greater than 10 µM. For the same compound, the IC50 [4] was less than 0.0316 µM, the IC50 [5] was less than 0.0316 µM and the IC50 [6] was less than 0.0316 µM. It also gave a viability, T/C [7] of 80%, a viability, T/C [8] of 105% and a viability, T/C [9] of 84.1%. The viability, T/C [10] was 105%, the viability, T/C (second compound 0.0316 µM, first compound 3.16 µM) was 127% and the viability, T/C (second compound 0.0316 µM, first compound 10 µM) was 125%. The viability, T/C [11] was 61.9%, the viability, T/C [12] was 64.2% and the viability, T/C [13] was 60%. The viability, T/C [14] was 59.7%, the viability, T/C (second compound 0.1 µM, first compound 3.16 µM) was 75.8% and the viability, T/C (second compound 0.1 µM, first compound 10 µM) was 81.1%. For the same compound, the viability, T/C [15] was 52.6%, the viability, T/C [16] was 59.9% and the viability, T/C [17] was 60.2%. The viability, T/C [18] was 62.9%, the viability, T/C (second compound 0.316 µM, first compound 3.16 µM) was 63.7% and the viability, T/C (second compound 0.316 µM, first compound 10 µM) was 67%. It also gave a viability, T/C [19] of 49.9%, a viability, T/C [20] of 47% and a viability, T/C [21] of 47.1%. It also gave a viability, T/C [22] of 58.4%, a viability, T/C (second compound 1 µM, first compound 3.16 µM) of 59.6% and a viability, T/C (second compound 1 µM, first compound 10 µM) of 59.8%. It also gave a viability, T/C [23] of 39.7%, a viability, T/C [24] of 45.9% and a viability, T/C [25] of 51.5%. It also gave a viability, T/C [26] of 50.4%, a viability, T/C (second compound 3.16 µM, first compound 3.16 µM) of 54.7% and a viability, T/C (second compound 3.16 µM, first compound 10 µM) of 53%. It also gave a viability, T/C [27] of 48.6%, a viability, T/C [28] of 37.7% and a viability, T/C [29] of 47.1%. It also gave a viability, T/C [30] of 44.9%, a viability, T/C (second compound 10 µM, first compound 3.16 µM) of 44.7% and a viability, T/C (second compound 10 µM, first compound 10 µM) of 44%.
With `CC1(C)CCC(CN2CCN(c3ccc(C(=O)NS(=O)(=O)c4ccc(NCC5CCOCC5)c([N+](=O)[O-])c4)c(Oc4cnc5[nH]ccc5c4)c3)CC2)=C(c2ccc(Cl)cc2)C1` the viability, T/C (compound 0.0316 µM) was 96.8% and 88.2%, the viability, T/C (compound 0.1 µM) was 97.5% and 99.5% and the viability, T/C (compound 0.316 µM) was 86.7% and 95.1%. For the same compound, the viability, T/C (compound 1 µM) was 101% and 91.4%, the viability, T/C (compound 3.16 µM) was 101% and 90.6% and the viability, T/C (compound 10 µM) was 80.5% and 73.1%. For the same compound, the IC50 (curve of compound) was greater than 10 µM.
With `CCN1CCN(Cc2ccc(Nc3ncc(F)c(-c4cc(F)c5nc(C)n(C(C)C)c5c4)n3)nc2)CC1` + CN1CCN(c2cc(C(=O)Nc3cc4cc(-c5cnn(C)c5)ccc4cn3)ccn2)CC1 the IC50 [1] was greater than 1 µM, the IC50 [2] was greater than 1 µM and the IC50 [3] was less than 0.00316 µM. For the same compound, the IC50 [4] was less than 0.00316 µM, the IC50 [5] was less than 0.00316 µM and the IC50 [6] was less than 0.00316 µM. For the same compound, the viability, T/C (second compound 0.0316 µM, first compound 0.00316 µM) was 91.4%, the viability, T/C (second compound 0.0316 µM, first compound 0.01 µM) was 85.2% and the viability, T/C [7] was 73.7%. The viability, T/C [8] was 79.6%, the viability, T/C [9] was 132% and the viability, T/C [10] was 181%. It also gave a viability, T/C (second compound 0.1 µM, first compound 0.00316 µM) of 72.8%, a viability, T/C (second compound 0.1 µM, first compound 0.01 µM) of 55.6% and a viability, T/C [11] of 64.6%. The viability, T/C [12] was 75.3%, the viability, T/C [13] was 96.8% and the viability, T/C [14] was 157%. For the same compound, the viability, T/C (second compound 0.316 µM, first compound 0.00316 µM) was 42.6%, the viability, T/C (second compound 0.316 µM, first compound 0.01 µM) was 43.2% and the viability, T/C [15] was 48.1%. It also gave a viability, T/C [16] of 53.1%, a viability, T/C [17] of 81.8% and a viability, T/C [18] of 88.4%. It also gave a viability, T/C (second compound 1 µM, first compound 0.00316 µM) of 10.7%, a viability, T/C (second compound 1 µM, first compound 0.01 µM) of 5.74% and a viability, T/C [19] of 6.1%. For the same compound, the viability, T/C [20] was 7.58%, the viability, T/C [21] was 12% and the viability, T/C [22] was 12.2%. It also gave a viability, T/C (second compound 3.16 µM, first compound 0.00316 µM) of 9.03%, a viability, T/C (second compound 3.16 µM, first compound 0.01 µM) of 6.91% and a viability, T/C [23] of 7.06%. The viability, T/C [24] was 8.11%, the viability, T/C [25] was 10.9% and the viability, T/C [26] was 11.1%. It also gave a viability, T/C (second compound 10 µM, first compound 0.00316 µM) of 9.28%, a viability, T/C (second compound 10 µM, first compound 0.01 µM) of 1.85% and a viability, T/C [27] of 3.61%. For the same compound, the viability, T/C [28] was 4.38%, the viability, T/C [29] was 8.89% and the viability, T/C [30] was 4.27%.
With `CC(C)CC(NC(=O)C(Cc1ccccc1)NC(=O)c1cnccn1)B(O)O` (stereo not drawn) the viability, T/C (compound 0.000949 µM) was 86.3% and 91.7%, the viability, T/C (compound 0.003 µM) was 68% and 73.5% and the viability, T/C (compound 0.00949 µM) was 16.2% and 14.8%. The viability, T/C (compound 0.03 µM) was 8.01% and 3.1%, the viability, T/C (compound 0.0949 µM) was 7.3% and 7.41% and the viability, T/C (compound 0.3 µM) was 6.04% and 11.3%. For the same compound, the IC50 (curve of compound) was 0.00447 µM and 0.00475 µM.
